Drawing on the NIST ThermoML archive (doi:10.1016/j.jct.2018.06.015), this text covers speed of sound and mass density for 4 molecules.

The conditions of data set [1]: 100 kPa, Liquid; for speed of sound: Frequency=3 MHz, Single path-length method; for mass density: Vibrating tube method.
Data set [2] can be described thus: xn = mol fraction of the nth substance listed. The note with it: 100 kPa, Liquid, x2 = 0; for speed of sound: Frequency=3 MHz, Single path-length method; for mass density: Vibrating tube method.

Numbers after ± are expanded uncertainties.

Usually speed of sound stands for the propagation velocity of pressure waves in the medium. As usually defined, the mass density is the mass of a sample divided by its volume. `CCCCOCCOCCO` [3,6-dioxa-1-decanol]: the speed of sound was found to be 1378.2 ± 2.5 m/s in data set [1] (293.15 K); 1361.3 ± 2.5 m/s in data set [1] (298.15 K); 1344.5 ± 2.5 m/s in data set [1] (303.15 K); 1326.4 ± 2.5 m/s in data set [1] (308.15 K); 1307.7 ± 2.5 m/s in data set [1] (313.15 K). Moreover, the mass density amounted to 952.288 ± 0.41 kg/m3 in data set [1] (293.15 K); 948.1 ± 0.41 kg/m3 in data set [1] (298.15 K); 943.909 ± 0.41 kg/m3 in data set [1] (303.15 K); 939.704 ± 0.41 kg/m3 in data set [1] (308.15 K); 935.503 ± 0.41 kg/m3 in data set [1] (313.15 K).

Turning to `CCCCCCCCCCO` [decan-1-ol] + CCCCOCCOCCO, the speed of sound in data set [2] (293.15 K) is 1396.7 ± 2.5 m/s; in data set [2] (298.15 K) it was 1379.4 ± 2.5 m/s; in data set [2] (303.15 K) it was 1362.4 ± 2.5 m/s; in data set [2] (308.15 K), 1345.6 ± 2.5 m/s; in data set [2] (313.15 K), 1329.1 ± 2.5 m/s. The mass density came to 829.898 ± 0.42 kg/m3 in data set [2] (293.15 K); 826.489 ± 0.42 kg/m3 in data set [2] (298.15 K); 823.069 ± 0.42 kg/m3 in data set [2] (303.15 K); 819.635 ± 0.42 kg/m3 in data set [2] (308.15 K); 816.188 ± 0.42 kg/m3 in data set [2] (313.15 K).

Regarding `CCCCCCO` [hexan-1-ol] + CCCCOCCOCCO, the speed of sound is reported as 1320.4 ± 2.5 m/s in data set [2] (293.15 K); 1303.5 ± 2.5 m/s in data set [2] (298.15 K); 1286.7 ± 2.5 m/s in data set [2] (303.15 K); 1270 ± 2.5 m/s in data set [2] (308.15 K); 1253.5 ± 2.5 m/s in data set [2] (313.15 K). Moreover, the mass density in data set [2] (293.15 K) was 819.239 ± 0.42 kg/m3; in data set [2] (298.15 K), 815.652 ± 0.42 kg/m3; in data set [2] (303.15 K) it was 812.043 ± 0.42 kg/m3; in data set [2] (308.15 K), 808.402 ± 0.42 kg/m3; in data set [2] (313.15 K), 804.743 ± 0.42 kg/m3.

In the case of `CCCCCCCCO` [octan-1-ol] + CCCCOCCOCCO, the speed of sound was determined as 1364.1 ± 2.4 m/s in data set [2] (293.15 K); 1347.3 ± 2.4 m/s in data set [2] (298.15 K); 1331 ± 2.4 m/s in data set [2] (303.15 K); 1314.3 ± 2.4 m/s in data set [2] (308.15 K); 1297.7 ± 2.4 m/s in data set [2] (313.15 K). The mass density in data set [2] (293.15 K) came out at 825.337 ± 0.41 kg/m3; in data set [2] (298.15 K), 821.877 ± 0.41 kg/m3; in data set [2] (303.15 K) it was 818.4 ± 0.41 kg/m3; in data set [2] (308.15 K) it was 814.903 ± 0.41 kg/m3; in data set [2] (313.15 K), 811.385 ± 0.41 kg/m3.
